The values below come from patent publication US8420653B2, “Pyrimidine compounds and their uses” (Orchid Chemicals & Pharmaceuticals Limited, priority 2008, dated 2013).

Assay [1] has as its system TNF-α. Kind of assay: In vitro measurement of TNF-α in human PBMC. It counts as cell-based. Here is the method:
In Vitro Measurement of TNF-α in Human Peripheral Blood Mononuclear Cells
This assay determines the effect of test compounds on the production of TNF a in human Peripheral Blood Mononuclear Cells (PBMC). Compounds were tested for their ability to inhibit the activity of TNF α in human PBMC. PBMC were isolated from blood (of healthy volunteers) using BD Vacutainer CPT™ (Cell preparation tube, BD Bio Science) and suspended in RPMI medium (Physiol. Res. 52, 593-598, 2003). The test compounds were pre-incubated with PBMC (0.5 million/incubation well) for 15 minutes at 37° C. and then stimulated with Lipopolysaccharide (Escherichia coli: B4; 1 μg/ml) for 18 hours at 37° C. in 5% CO2. The levels of TNF-α in the cell culture medium were estimated using enzyme-linked immunosorbent assay performed in a 96 well format as per the procedure of the manufacturer (Cayman Chemical, Ann Arbor, USA).

For assay [2], the system named is TNF-α. The assay is described as follows: In vitro measurement of TNF-α in human whole blood. In kind it is cell-based. Here is the method: In Vitro Measurement of TNF-α in Human Whole Blood
This assay determines the effect of test compounds on the production of TNF-α in human whole blood. Compounds were tested for their ability to inhibit the activity of TNF-α in whole blood.
Heparanised blood from a healthy human volunteer was collected and diluted with RPMI 1640 incomplete medium (1:5 dilution). Diluted blood was aliquoted into 96 well plate 170 ul/well immediately. 20 ul of the drug of different concentrations was added to the respective wells with a control. The plate was incubated in 37° C. thermo mixer at 400 rpm for 60-70 minutes. After the incubation 10 ul of the LPS (from E. coli B4) was added to get the final concentration of 1 ug/well. The plate was again incubated in the 37° C. thermo mixer at 400 rpm 120 minutes in the thermo mixer and then left in the 37° C. CO2 incubator for two more hours so that the total stimulation time is four hours. The plasma was collected carefully without disturbing the pellet at the bottom and stored at −20° C. Then TNF-α levels were estimated using the R&D systems ELISA kit duoset kit (DY210).

Assay [3] deals with TNF-α. Kind of assay: LPS induced sepsis for measurement of TNF-α inhibition in mice. In kind it is in vivo. As to conditions: Mus musculus; TNF alpha inhibition in mice sepsis model. Here is the method:
LPS Induced Sepsis for Measurement of TNF-α Inhibition in Mice
The LPS induced sepsis model in mice was performed as described by Les sekut et al (J Lab Clin Med 1994; 124, 813-20). Female Swiss albino mice were selected and the body weights were equivalent within each group. The mice were fasted for 20 hours with free access to water. The mice were dosed orally with the test compound suspended in vehicle containing 0.5% Tween 80 in 0.25% Carboxy-methylcellulose sodium salt. The control mice were administered the vehicle alone. After 30 minutes of oral dosing, mice were injected with 500 μg of Lipopolysaccharide (Escherichia coli, LPS: B4 from Siga) in phosphate buffer saline solution into the intraperitoneal cavity of the mice. After 90 minutes of LPS administration mice were bled via retro-orbital sinus puncture. Blood samples were stored overnight at 4° C. Serum samples were collected by centrifuging the samples at 4000 rpm for 15 minutes at 4° C. Immediately the serum samples were analyzed for TNF-α levels using commercially available mouse TNF-α ELISA kit (Amersham Biosciences) and assay was performed by the manufacturer instruction.
ED50 Measurement of TNF Alpha Inhibition in Mice Sepsis Model

The next assay relates to TPA induced dermatitis. Kind of assay: Psoriasis model, TPA induced dermatitis. In kind it is in vivo. The conditions noted are these: mice, topical on the ears. Here is the method:
Inhibitory Activity in Psoriasis Model TPA induced dermatitis in mice was performed using the protocol described in Eur J Pharmacol 507, 253-259, 2005. Balb/c mice were acclimatized to laboratory conditions 5-7 days prior to the start of the experiment. They were randomly distributed to various groups based on body weight. The baseline ear thickness of the animal's both ears using thickness gauge was measured. For each animal 20 μl of that contains 2.5 μg of TPA was applied with help of micropipettor with disposable tips. Test compound was applied topically to both inner and outer surface of the both the ears i.e. left and right ear with acetone as control after 30 minutes 6 hours and 24 hours after application of TPA (20 μl). Ear thickness was measured after 6 and 24 hours in animals, while for ear weight ears were excised under anesthesia and weighed.

Another assay concerns LPS induced neutrophilia. Kind of assay: LPS induced neutrophilia model for asthma and COPD. In kind it is in vivo. The conditions noted are these: Wistar rats, BAL 4 h after LPS. Here is the method:
LPS Induced Neutrophilia Model for Asthma and COPD LPS induced neutrophilia in Wistar rats was performed using the protocol described in Pulm Pharmacol & Ther 17, 3, 133-140, 2004. Male Wistar rats were acclimatized to laboratory conditions five to seven days prior to the start of the experiment. They were randomly distributed to various groups based on body weight. Except normal group all the animals were exposed to LPS 100 μg/ml for 40 min. The rats were dosed with the test compound suspended in the vehicle containing 0.25% carboxymethylcellulose before half an hour of LPS exposure. BAL was performed 4 h after LPS exposure, total cell count and DLC was done and compared with control and the standard drug. Percentage Inhibition for neutrophilia was calculated.

For another assay, the system named is PDE4. Kind of assay: PDE4 activity (source human U937 cells). In kind it is biochemical. The conditions noted are these: read-out: PDE4 inhibition IC50 (nm). Here is the method: PDE4 inhibition was measured by following a literature assay procedure (Cortizo J et al., Br J. Pharmacol., 1993, 108: 562-568. The assay method involves the following conditions.
Substrate: 1.01 μM [^3H] camp+camp
Pre-Incubation Time/Temperature: 15 minutes at 25° C.
Incubation Time/Temperature. 20 minutes at 25° C.
Incubation buffer: 50 mM Tris-HCl, pH 7.5, 5 mM MgCl2
Quantitation method: Quantitation of [^3H] Adenosine
Significance criteria: ≧50% of max stimulation or inhibition

Another assay addresses T1, PDE4B enzyme (Homo sapiens, UniProt Q07343).
T1 construct: purchased Calbiochem
Kind of assay: PDE4 assay with pure PDE4B enzyme (Calbiochem). In kind it is biochemical.

T1 sequence (Q07343 whole entry, species assumed): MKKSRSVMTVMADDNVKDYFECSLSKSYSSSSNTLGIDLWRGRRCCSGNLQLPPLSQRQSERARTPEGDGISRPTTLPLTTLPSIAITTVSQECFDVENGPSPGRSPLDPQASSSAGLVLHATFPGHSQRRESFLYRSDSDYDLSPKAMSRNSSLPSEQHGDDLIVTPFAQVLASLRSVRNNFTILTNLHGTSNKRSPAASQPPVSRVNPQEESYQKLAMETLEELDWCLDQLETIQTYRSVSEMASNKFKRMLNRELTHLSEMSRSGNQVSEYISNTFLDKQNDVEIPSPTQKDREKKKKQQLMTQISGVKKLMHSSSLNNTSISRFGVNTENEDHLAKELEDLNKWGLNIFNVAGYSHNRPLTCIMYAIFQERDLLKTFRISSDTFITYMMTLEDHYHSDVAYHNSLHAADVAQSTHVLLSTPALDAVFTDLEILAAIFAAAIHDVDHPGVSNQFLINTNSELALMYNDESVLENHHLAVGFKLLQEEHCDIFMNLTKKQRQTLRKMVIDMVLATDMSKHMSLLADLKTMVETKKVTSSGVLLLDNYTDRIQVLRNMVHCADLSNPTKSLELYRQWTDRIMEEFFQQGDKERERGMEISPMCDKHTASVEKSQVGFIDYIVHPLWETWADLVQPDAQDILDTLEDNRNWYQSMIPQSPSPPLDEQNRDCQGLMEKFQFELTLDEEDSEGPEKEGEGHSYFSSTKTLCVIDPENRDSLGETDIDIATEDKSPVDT

As for `NS(=O)(=O)c1cccc(-c2c(-c3ccccc3)nc(C(F)(F)F)nc2N2CCOCC2)c1` [Example 98, 3-[4-Morpholin-4-yl-2-(trifluoromethyl)-6-phenyl-pyrimidin-5-yl]benzenesulfonamide], the inhibition at 1 µM was 94.1% with TNF-α [1] (Conc. (1 μM)) and 40.6% in the assay with TNF-α [2] (Conc. (1 μM)). Also, the inhibition at 10 µM with TNF-α [1] (Conc. (10 μM)) is 94.6%; in the assay on TNF-α [2] (Conc. (10 μM)), 62%; at PDE4B enzyme, 76.1%. In the assay on TNF-α [3], this compound came in with an ED50 of 0.01 mg/kg. For the same compound, the “Psoriasis-acute TPA induced dermatitis % inhibition Ear Wt” value in the assay with TPA induced dermatitis came out at 11.84%. Besides, the “Psoriasis-acute TPA induced dermatitis % inhibition Ear thickness” value in the assay with TPA induced dermatitis is 41.10%. Besides, in the assay with LPS induced neutrophilia, the “LPS induced neutrophilia % inhibition at 10 mg/kg” value was found to be 31.73%. In the assay with PDE4, the IC50 amounted to 7 nM.
